Measurements taken from US20210253511A1, “COMPOUNDS AND USES FOR THE TREATMENT AND PREVENTION OF DISEASES AND CONDITIONS ASSOCIATE WITH OR AGGREVATED BY IMPARED MITOPHAGY” (Yissum Research Development Company of The Hebrew …, priority 2018, published 2021).

What was measured:
[1] = test system: mitophagy in C. elegans muscles; test: Mitophagy imaging with Mito-Rosella sensor; format: in vivo; conditions: 1 mM; L4 Rosella worms; 21° C.
Source text: FIGS. 8A-8F. (FIG. 8A) is a schematic illustration of the Mito-Rosella sensor function. The Mito-Rosella sensor contains an N-terminal mitochondrial targeting signal, a pH-stable red fluorescent protein and a C-terminal pH-sensitive green fluorescent protein. In non-acidic environment the green to red fluorescent ratio is 0.6-0.8. However, in the autolysosome, where the pH is low, the green fluorescent is quenched and the green to red ratio is decreased to 0.2-0.5. By measuring the mitochondria red and green fluorescence, it was possible to monitor mitophagy in live worms. […] A bar graph presenting the results of mitophagy imaging experiments. L4 larval worms were treated with either 8 mM paraquat or 1 mM 1,8-Diaminooctane for 16 h, at 21° C. Control worms were treatment with similar volume of distilled water and incubated under similar conditions. Asterisks indicate significance for comparisons with control worms. […]
The Mito-Rosella sensor is composed of an N-terminal mitochondrial targeting sequence followed by a pH-insensitive red fluorescent protein (DsRed.T3) and a pH-sensitive green fluorescent protein (pHluorin) (FIG. 8A). In intact mitochondria the green to red fluorescence ratio is high (between 0.6-0.8). However, upon acidification in autolysosome (where mitochondria are degraded) the green fluorescence is quenched and thus the ration is decreased to 0.2-0.5.

[2] = test system: dct-1(tm376) mutants / dct-1 RNAi worms; test: Paraquat survival assay in dct-1 deletion mutant or RNAi knockdown worms; format: in vivo, C. elegans
Experimental: (§1) FIGS. 9A-9D show the protective activity of 1,8-Diaminooctane is mitophagy-dependent. (FIG. 9A) is a schematic illustration of the mitophagy pathway in C. elegans. Survival curves presenting the effect of dct-1 and pink-1 deletion mutations (FIG. 9B, FIG. 9C) or RNAi knockdowns (FIG. 9D) on worms' viability in 200 mM PQ at indicated time points. Statistical analysis on PQ survival curves were performed using the log-rank (Mantel-Cox) test with Prism 7 software. The plots represent the average of six independent experiments. The minimum number of worms examined for each experimental condition is 133.
(§2) In the first one, the effect of 1,8-Diaminooctane on the survival of dct-1 and pink-1 mutants in PQ was investigated. DCT-1 is an orthologue of the mammalian NIX/BNIP3L and BNIP3 that act as mitophagy receptors, and PINK-1 is a mitochondrial phosphatase and tensin (PTEN)-induced kinase 1 which has a critical function in mitophagy (see K. Palikaras, E. Lionaki, N. Tavernarakis, Coordination of mitophagy and mitochondrial biogenesis during ageing in C. elegans, Nature 521 (7553) (2015) 525-8; and FIG. 3A). It was hypothesized that if mitophagy is essential for the protective effect of 1,8-Diaminooctane, then dct-1 and pink-1 mutants will become sensitive to PQ following treatment. […] The second experiment that was performed was an RNAi experiment. Here, dct-1 and pink-1 were selectively knocked down using RNAi. The RNAi results recapitulated the one of the mutant experiments ([…]). […] Importantly, the RNAi phenotype was less strong compared to the one observed with the deletion mutants. […] The difference between the results could be due to incomplete suppression of dct-1 and pink-1 in the RNAi treated worms. Together, our results verify that 1,8-Diaminooctane protects against oxidative stress by activating mitophagy.

[3] = test system: pink-1(tm1779) mutants / pink-1 RNAi worms; test: Paraquat survival assay in pink-1 deletion mutant or RNAi knockdown worms; format: in vivo, C. elegans
Experimental: as §1, §2

[4] = test system: C. elegans; test: Off-food speed measurements; format: in vivo; conditions: 4 mM, aged worms, untreated worms declined significantly
Experimental: Bar graphs presenting the speed of 3 and 11 days post L1 wild-type worms that were treated with 4 mM 1,8-Diaminooctane or with vehicle as a control. The measurements of speed were performed in the absence of food (n=6 assays performed over at least 3 days). Asterisks indicate significance for comparisons with control worms (day 11). **p<0.01, two-way ANOVA with Bonferroni post-test. NS, Not significant. Error bars indicate SEM.
For speed-imaging experiments, low-peptone NGM agar plates were used. These plates were prepared as described above apart from the of Bacto peptone concentration that was decreased to 0.13 g/L and the use of 60 mm petri dished (instead of 35 mm dishes). […] In brief, eight synchronized worms (age 3 or 11 post-L1) were put (for 30 min) in a drop of M9 buffer to clean them from external and internal bacteria. During the 30 min the M9 buffer was replaced twice. After 30 min, the worms were placed at the center of a 17 mm diameter copper ring on an unseeded low-peptone plate. Recording was started after 5 min acclimation time. The worms were recorded for 10 min at 0.5 frames/s, using a Q-Imaging MicroPublisher 5.0 RTV Microscope Camera mounted onto an Olympus SZ61 stereo microscope. A custom-written MATLAB software was used to analyze the speed. For each treatment, at least 48 animals in 6 independent assays were measured.

[5] = compared to control worms that did not get the treatment, p<0.0001
[6] = compared to treated wild-type worms, 200 mM PQ, p<0.0001
[7] = compared to worms treated with mock RNAi (empty vector)

NCCCCCCCCN [1,8-Diaminooctane] was tested, and the “mitophagy response (Mito-Rosella green to red fluorescence ratio)” value [1] was “strong mitophagy response”, the “survival in PQ of treated worms, RNAi against dct-1” value [2, 5] was “significantly higher than control worms” and the “resistance to PQ after treatment, dct-1(tm376) mutants” value [2, 6] was “significantly less resistant to PQ”. For the same compound, the “protective effect in PQ, RNAi against dct-1” value [2, 7] was “significantly lesser”, the “survival in PQ of treated worms, RNAi against pink-1” value [3, 5] was “significantly higher than control worms” and the “resistance to PQ after treatment, pink-1(tm1779) mutants” value [3, 6] was “significantly less resistant to PQ”. For the same compound, the “protective effect in PQ, RNAi against pink-1” value [3, 7] was “significantly lesser”, the “speed (off food), day 11 post L1” value [4] was “remained high and was similar to day 3” and the “speed (off food), day 11 post L1” value ([4]; listed as 1,8-diaminooctane) was “no change in the speed”.
